Results: patent publication US8952024B2, “Herbicidal pyrimidone derivatives” (E I du Pont de Nemours and Company, priority 2009, dated 2015)

What was measured:
Test in all cases: Test B pre-/postemergence plant response
Format in all cases: in vivo
[1] = test system: Italian ryegrass (Lolium multiflorum)
In short: (§1)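 Compound in solvent + surfactant applied pre-em (loam/sand) or post-em (plants 2–18 cm, peat medium); greenhouse hold 13–15 days; visual 0–100 control score.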

[2] = test system: Surinam grass (Brachiaria decumbens)
In short: as §1

[3] = test system: bermudagrass (Cynodon dactylon)
In short: as §1

[4] = test system: blackgrass (Alopecurus myosuroides)
In short: as §1

[5] = test system: cocklebur (Xanthium strumarium)
In short: as §1

[6] = test system: downy bromegrass (Bromus tectorum)
In short: as §1

kochia (Kochia scoparia) = test system: kochia (Kochia scoparia)
In short: as §1

[7] = test system: large crabgrass (Digitaria sanguinalis)
In short: as §1

[8] = test system: morningglory (Ipomoea coccinea)
In short: as §1

[9] = test system: ragweed (common ragweed, Ambrosia elatior)
In short: as §1

[10] = test system: wheat (Triticum aestivum)
In short: as §1

wild oat (Avena fatua) = test system: wild oat (Avena fatua)
In short: as §1

[11] = test system: woolly cupgrass (Eriochloa villosa)
In short: as §1

[12] = 250 g ai/ha, Preemergence, 0 to 100 scale
[13] = Postemergence, 62 g ai/ha, scale 0 (no effect) to 100 (complete control), 13 to 15 days
[14] = Postemergence, 125 g ai/ha, visual rating after 13 to 15 days, scale 0 (no effect) to 100 (complete control)
[15] = Preemergence, 31 g ai/ha, scale 0 to 100 (0 no effect, 100 complete control)
[16] = Preemergence, 125 g ai/ha, 0 to 100 scale
[17] = Postemergence, 31 g ai/ha, scale 0 to 100 (0 no effect, 100 complete control)
[18] = Postemergence, 250 g ai/ha, scale 0 to 100
[19] = Preemergence, 62 g ai/ha, scale 0 to 100 (0 no effect, 100 complete control)
[20] = 31 g ai/ha, postemergence, scale 0 to 100, 0 is no effect, 100 is complete control
[21] = 62 g ai/ha, postemergence, 0 is no effect, 100 is complete control, 13 to 15 days
[22] = Postemergence, 250 g ai/ha, scale 0 to 100 (0 no effect, 100 complete control)

Cc1cccc(Cl)c1-n1c(-c2ccccc2)ncc(C(=O)C2=C(O)CCCC2=O)c1=O [Compound 46]
Plant response rating, Ryegrass, Italian [1, 12]: 0
Plant response rating, Ryegrass, Italian [1, 13]: 5
Plant response rating, Ryegrass, Italian [1, 14]: 5
Plant response rating, Ryegrass, Italian [1, 15]: 0
Ryegrass, Italian plant response rating [1, 16]: 0
Plant response rating, Surinam Grass [2, 12]: 90
Plant response rating, Surinam Grass [2, 13]: 75
Plant response rating, Surinam Grass [2, 14]: 80
Plant response rating, Surinam Grass [2, 15]: 0
Surinam Grass plant response rating [2, 16]: 75
Plant response rating, Bermudagrass [3, 12]: 98
Plant response rating, Bermudagrass [3, 17]: 80
Plant response rating, Bermudagrass [3, 13]: 85
Plant response rating, Bermudagrass [3, 14]: 90
Bermudagrass plant response rating [3, 18]: 90
Plant response rating, Bermudagrass [3, 15]: 0
Plant response rating, Blackgrass [4, 12]: 0
Plant response rating, Blackgrass [4, 17]: 0
Plant response rating, Blackgrass [4, 13]: 5
Plant response rating, Blackgrass [4, 14]: 10
Blackgrass plant response rating [4, 18]: 10
Plant response rating, Blackgrass [4, 15]: 0
Plant response rating, Blackgrass [4, 19]: 0
Blackgrass plant response rating [4, 16]: 0
Plant response rating, Cocklebur [5, 12]: 15
Plant response rating, Cocklebur [5, 17]: 75
Plant response rating, Cocklebur [5, 13]: 80
Plant response rating, Cocklebur [5, 14]: 80
Cocklebur plant response rating [5, 18]: 90
Plant response rating, Cocklebur [5, 15]: 0
Plant response rating, Cocklebur [5, 19]: 0
Cocklebur plant response rating [5, 16]: 0
Plant response rating, Bromegrass, Downy [6, 12]: 0
Plant response rating, Bromegrass, Downy [6, 17]: 0
Plant response rating, Bromegrass, Downy [6, 13]: 5
Plant response rating, Bromegrass, Downy [6, 14]: 10
Bromegrass, Downy plant response rating [6, 18]: 25
Plant response rating, Bromegrass, Downy [6, 15]: 0
Plant response rating, Bromegrass, Downy [6, 19]: 0
Bromegrass, Downy plant response rating [6, 16]: 0
Plant response rating, Kochia (kochia (Kochia scoparia); [13]): 0
Plant response rating, Kochia (kochia (Kochia scoparia); [14]): 20
Kochia plant response rating (kochia (Kochia scoparia); [18]): 30
Plant response rating, Crabgrass, Large [7, 12]: 98
Plant response rating, Crabgrass, Large [7, 17]: 60
Plant response rating, Crabgrass, Large [7, 13]: 65
Plant response rating, Crabgrass, Large [7, 14]: 75
Crabgrass, Large plant response rating [7, 18]: 75
Plant response rating, Crabgrass, Large [7, 15]: 45
Plant response rating, Crabgrass, Large [7, 19]: 75
Crabgrass, Large plant response rating [7, 16]: 85
Plant response rating, Morningglory [8, 12]: 0
Plant response rating, Morningglory [8, 13]: 30
Plant response rating, Morningglory [8, 14]: 45
Plant response rating, Morningglory [8, 15]: 0
Plant response rating, Morningglory [8, 19]: 0
Morningglory plant response rating [8, 16]: 0
Plant response rating, Ragweed [9, 12]: 100
Plant response rating, Ragweed [9, 13]: 75
Plant response rating, Ragweed [9, 14]: 80
Plant response rating, Ragweed [9, 15]: 100
Ragweed plant response rating [9, 16]: 100
Plant response rating, Wheat [10, 12]: 0
Plant response rating, Wheat [10, 13]: 0
Plant response rating, Wheat [10, 14]: 0
Plant response rating, Wheat [10, 15]: 0
Wheat plant response rating [10, 16]: 0
Plant response rating, Oat, Wild (wild oat (Avena fatua); [12]): 0
Plant response rating, Oat, Wild (wild oat (Avena fatua); [13]): 5
Plant response rating, Oat, Wild (wild oat (Avena fatua); [14]): 20
Plant response rating, Oat, Wild (wild oat (Avena fatua); [15]): 0
Oat, Wild plant response rating (wild oat (Avena fatua); [16]): 0
Plant response rating, Cupgrass, Woolly [11, 12]: 60
Plant response rating, Cupgrass, Woolly [11, 17]: 10
Plant response rating, Cupgrass, Woolly [11, 13]: 20
Plant response rating, Cupgrass, Woolly [11, 14]: 25
Cupgrass, Woolly plant response rating [11, 18]: 45
Plant response rating, Cupgrass, Woolly [11, 15]: 10
Plant response rating, Cupgrass, Woolly [11, 19]: 45
Cupgrass, Woolly plant response rating [11, 16]: 50

CC(C)CC(=O)OC1=C(C(=O)c2cnc(-c3ccccc3)n(-c3ccccc3)c2=O)C(=O)CCC1 [Compound 83]
Plant response rating, Ryegrass, Italian [1, 20]: 0
Ryegrass, Italian plant response rating (0 to 100 scale) [1, 21]: 0
Plant response rating, Ryegrass, Italian [1, 22]: 5
Plant response rating, Surinam Grass [2, 20]: 75
Surinam Grass plant response rating (0 to 100 scale) [2, 21]: 75
Plant response rating, Surinam Grass [2, 22]: 90
Plant response rating, Bermudagrass [3, 20]: 75
Bermudagrass plant response rating (0 to 100 scale) [3, 21]: 75
Plant response rating, Bermudagrass [3, 14]: 85
Plant response rating, Bermudagrass [3, 22]: 90
Plant response rating, Blackgrass [4, 20]: 0
Blackgrass plant response rating (0 to 100 scale) [4, 21]: 0
Plant response rating, Blackgrass [4, 14]: 0
Plant response rating, Blackgrass [4, 22]: 0
Plant response rating, Cocklebur [5, 20]: 75
Cocklebur plant response rating (0 to 100 scale) [5, 21]: 80
Plant response rating, Cocklebur [5, 14]: 80
Plant response rating, Cocklebur [5, 22]: 90
Plant response rating, Bromegrass, Downy [6, 20]: 40
Bromegrass, Downy plant response rating (0 to 100 scale) [6, 21]: 45
Plant response rating, Bromegrass, Downy [6, 14]: 45
Plant response rating, Bromegrass, Downy [6, 22]: 60
Plant response rating, Kochia (kochia (Kochia scoparia); [20]): 65
Kochia plant response rating (0 to 100 scale) (kochia (Kochia scoparia); [21]): 75
Plant response rating, Kochia (kochia (Kochia scoparia); [22]): 95
Plant response rating, Crabgrass, Large [7, 20]: 85
Crabgrass, Large plant response rating (0 to 100 scale) [7, 21]: 85
Plant response rating, Crabgrass, Large [7, 14]: 95
Plant response rating, Crabgrass, Large [7, 22]: 98
Plant response rating, Morningglory [8, 20]: 70
Morningglory plant response rating (0 to 100 scale) [8, 21]: 75
Plant response rating, Morningglory [8, 22]: 100
Plant response rating, Ragweed [9, 20]: 75
Ragweed plant response rating (0 to 100 scale) [9, 21]: 80
Plant response rating, Ragweed [9, 22]: 98
Plant response rating, Wheat [10, 20]: 0
Wheat plant response rating (0 to 100 scale) [10, 21]: 0
Plant response rating, Wheat [10, 22]: 0
Plant response rating, Oat, Wild (wild oat (Avena fatua); [20]): 10
Oat, Wild plant response rating (0 to 100 scale) (wild oat (Avena fatua); [21]): 10
Plant response rating, Oat, Wild (wild oat (Avena fatua); [22]): 10
Plant response rating, Cupgrass, Woolly [11, 20]: 70
Cupgrass, Woolly plant response rating (0 to 100 scale) [11, 21]: 85
Plant response rating, Cupgrass, Woolly [11, 14]: 90
Plant response rating, Cupgrass, Woolly [11, 22]: 95
